Assay [1] relates to Candida albicans. Nature of the assay: Antifungal activity against Candida albicans RCMB 005036 assessed as diameter of inhibition zone at 1 mg/mL after 24 to 48 hrs by agar well diffusion method. The class given is functional. As to conditions: read-out: DIZ. (In agar diffusion tests the substance spreads into inoculated agar from a disc or well.)
In assay [2] the test system is Bacillus subtilis. Nature of the assay: Antibacterial activity against Bacillus subtilis RCMB 010067 assessed as diameter of inhibition zone at 1 mg/mL after 24 to 48 hrs by agar well diffusion method. Format: functional. As to conditions: read-out: DIZ.
The subject of assay [3] is Candida albicans. Nature of the assay: Antifungal activity against Candida albicans RCMB 005036 after 24 to 48 hrs by agar well diffusion method. Format: functional.
The test system of assay [4] is Streptococcus pneumoniae. Briefly: Antibacterial activity against Streptococcus pneumoniae RCMB 010010 after 24 to 48 hrs by agar well diffusion method. Format: functional.
For assay [5], the system named is Escherichia coli. Nature of the assay: Antibacterial activity against Escherichia coli RCMB 010052 after 24 to 48 hrs by agar well diffusion method. Format: functional.
For assay [6], the system named is Pseudomonas aeruginosa. Nature of the assay: Antibacterial activity against Pseudomonas aeruginosa RCMB 010043 after 24 to 48 hrs by agar well diffusion method. Format: functional.
Assay [7] relates to Pseudomonas aeruginosa. Briefly: Antibacterial activity against Pseudomonas aeruginosa RCMB 010043 assessed as diameter of inhibition zone at 1 mg/mL after 24 to 48 hrs by agar well diffusion method. The class given is functional. As to conditions: read-out: DIZ.
The test system of assay [8] is Bacillus subtilis. Briefly: Antibacterial activity against Bacillus subtilis RCMB 010067 after 24 to 48 hrs by agar well diffusion method. Format: functional.
The subject of assay [9] is Escherichia coli. Nature of the assay: Antibacterial activity against Escherichia coli RCMB 010052 assessed as diameter of inhibition zone at 1 mg/mL after 24 to 48 hrs by agar well diffusion method. Format: functional. The following applies: read-out: DIZ.
Assay [10] relates to Streptococcus pneumoniae. Briefly: Antibacterial activity against Streptococcus pneumoniae RCMB 010010 assessed as diameter of inhibition zone at 1 mg/mL after 24 to 48 hrs by agar well diffusion method. Format: functional. The following applies: read-out: DIZ.
Assay [11] relates to Aspergillus fumigatus. Nature of the assay: Antifungal activity against Aspergillus fumigatus RCMB 002568 assessed as diameter of inhibition zone at 1 mg/mL after 48 hrs by agar well diffusion method. The following applies: RCMB 002568, 48 h, read-out: DIZ. The class given is functional.
A short description of assay [12]: (§1) Cytotoxicity against human MCF7 cells assessed as decrease in cell viability after 24 hrs by MTT assay. The class given is functional, cell-based. The following applies: MCF7, 24 h. Background: Tetrazolium assays rely on reduction of a dye to a coloured formazan, in cell work by metabolically active cells.
The test system of assay [13] is MCF7. The assay is described as §1. The class given is functional, cell-based.
For assay [14], the system named is Aspergillus fumigatus. Briefly: Antifungal activity against Aspergillus fumigatus RCMB 002568 after 24 to 48 hrs by agar well diffusion method. Format: functional.
The test system of assay [15] is MCF7. Briefly: Potency index, ratio of 5-fluorouracil IC50 to test compound IC50 for human MCF7 cells. The class given is functional.

Converted amounts (≈) assume the structure as drawn. Bounds are passed on as bounds.

The text below walks through data of ChEMBL document CHEMBL3875150, “Biological evaluation of some new N-(2,6-dimethoxypyrimidinyl) thioureido benzenesulfonamide derivatives as potential antimicrobial and anticancer agents” (Eur J Med Chem, 2016).

By MIC is commonly meant the least concentration at which growth counts as inhibited. A low value points to inhibition by little substance. As usually defined, the IC50 is the concentration that gives 50% inhibition.

Regarding `COc1cc(NS(=O)(=O)c2ccc(NC(=S)Nc3nc4cc(C)c(C)cc4s3)cc2)nc(OC)n1`, the zone of inhibition at 1000 µg/mL came out at 21.4 mm in the assay with Candida albicans [1]; 25.3 mm with Bacillus subtilis [2]; 10.3 mm in the assay with Pseudomonas aeruginosa [7]; 26.3 mm in the assay with Escherichia coli [9]; 22.7 mm with Streptococcus pneumoniae [10]; 23.3 mm in the assay on Aspergillus fumigatus [11]. The minimum inhibitory concentration (MIC) against Candida albicans [3] came to 3.9 µg/mL (≈ 7.35 µM); in the assay with Streptococcus pneumoniae [4], 1.95 µg/mL (≈ 3.67 µM); in the assay with Escherichia coli [5], 0.98 µg/mL (≈ 1.85 µM); in the assay with Pseudomonas aeruginosa [6], 250 µg/mL (≈ 471 µM); against Bacillus subtilis [8], 0.98 µg/mL (≈ 1.85 µM); in the assay on Aspergillus fumigatus [14], 1.95 µg/mL (≈ 3.67 µM). Besides, the IC50 in [12] was 93.9 µg/mL (≈ 177 µM). In addition, the Activity result in the assay on MCF7 [13] was “Dose-dependent effect”.

`COc1cc(NS(=O)(=O)c2ccc(NC(=S)Nc3cnccn3)cc2)nc(OC)n1`: the zone of inhibition at 1000 µg/mL in the assay on Candida albicans [1] amounted to 23.4 mm; in the assay on Bacillus subtilis [2] it was 26.4 mm; in the assay with Pseudomonas aeruginosa [7] it was 18.3 mm; in the assay with Escherichia coli [9], 28.7 mm; with Streptococcus pneumoniae [10], 25.8 mm; in the assay with Aspergillus fumigatus [11] it was 24.9 mm. For the same compound, the MIC with Candida albicans [3] turned out to be 1.95 µg/mL (≈ 4.36 µM); in the assay with Streptococcus pneumoniae [4], 0.98 µg/mL (≈ 2.19 µM); in the assay on Escherichia coli [5], 0.49 µg/mL (≈ 1.09 µM); against Pseudomonas aeruginosa [6] it was 62.5 µg/mL (≈ 140 µM); against Bacillus subtilis [8], 0.98 µg/mL (≈ 2.19 µM); against Aspergillus fumigatus [14] it was 0.98 µg/mL (≈ 2.19 µM). In addition, in [12], the IC50 was over 200 µg/mL. Moreover, the Activity result with MCF7 [13] is “Dose-dependent effect”.

On to `COc1cc(NS(=O)(=O)c2ccc(NC(=S)NC3CCN(Cc4ccccc4)CC3)cc2)nc(OC)n1`, for which the zone of inhibition at 1000 µg/mL with Candida albicans [1] amounted to 12.7 mm; in the assay with Bacillus subtilis [2], 18.4 mm; in the assay on Pseudomonas aeruginosa [7], 8.2 mm; with Escherichia coli [9], 16.3 mm; with Streptococcus pneumoniae [10] it was 17.3 mm; in the assay on Aspergillus fumigatus [11], 14.2 mm. Also, the MIC in the assay on Candida albicans [3] is 125 µg/mL (≈ 230 µM); with Streptococcus pneumoniae [4], 15.6 µg/mL (≈ 28.8 µM); with Escherichia coli [5], 62.5 µg/mL (≈ 115 µM); in the assay with Pseudomonas aeruginosa [6], 500 µg/mL (≈ 921 µM); against Bacillus subtilis [8] it was 7.81 µg/mL (≈ 14.4 µM); in the assay on Aspergillus fumigatus [14] it was 125 µg/mL (≈ 230 µM). The “Ratio IC50” value with MCF7 [15] is on record as 3. Further, in assay [12], the IC50 was 1.72 µg/mL (≈ 3.17 µM). In the assay with MCF7 [13], the Activity result is “Dose-dependent effect”.

`COc1cc(NS(=O)(=O)c2ccc(NC(=S)Nc3cc(=O)[nH]c(=O)[nH]3)cc2)nc(OC)n1`: the zone of inhibition at 1000 µg/mL was 20.1 mm in the assay with Candida albicans [1]; 26.1 mm with Bacillus subtilis [2]; 8.5 mm with Pseudomonas aeruginosa [7]; 24.3 mm with Escherichia coli [9]; 22.3 mm in the assay on Streptococcus pneumoniae [10]; 21.3 mm in the assay on Aspergillus fumigatus [11]. In addition, the MIC turned out to be 3.9 µg/mL (≈ 8.13 µM) against Candida albicans [3]; 1.95 µg/mL (≈ 4.07 µM) in the assay on Streptococcus pneumoniae [4]; 0.98 µg/mL (≈ 2.04 µM) in the assay with Escherichia coli [5]; 500 µg/mL (≈ 1040 µM) in the assay on Pseudomonas aeruginosa [6]; 0.98 µg/mL (≈ 2.04 µM) against Bacillus subtilis [8]; 3.9 µg/mL (≈ 8.13 µM) against Aspergillus fumigatus [14]. Also, in assay [12], the IC50 turned out to be 37.3 µg/mL (≈ 77.8 µM). Also, in the assay with MCF7 [13], the Activity result was “Dose-dependent effect”.

For `COc1cc(NS(=O)(=O)c2ccc(NC(=S)Nc3ccc4c(C)cc(=O)oc4c3)cc2)nc(OC)n1`, the zone of inhibition at 1000 µg/mL in the assay on Candida albicans [1] was found to be 18.1 mm; in the assay with Bacillus subtilis [2], 23.4 mm; in the assay with Pseudomonas aeruginosa [7] it was 10.6 mm; in the assay on Escherichia coli [9], 23.4 mm; in the assay with Streptococcus pneumoniae [10], 20.6 mm; in the assay on Aspergillus fumigatus [11] it was 20.3 mm. Besides, the MIC amounted to 7.81 µg/mL (≈ 14.8 µM) against Candida albicans [3]; 3.9 µg/mL (≈ 7.39 µM) with Streptococcus pneumoniae [4]; 1.95 µg/mL (≈ 3.7 µM) in the assay with Escherichia coli [5]; 125 µg/mL (≈ 237 µM) with Pseudomonas aeruginosa [6]; 1.95 µg/mL (≈ 3.7 µM) in the assay with Bacillus subtilis [8]; 3.9 µg/mL (≈ 7.39 µM) against Aspergillus fumigatus [14]. For the same compound, the IC50 in assay [12] was found to be 35.2 µg/mL (≈ 66.7 µM). For the same compound, the Activity result in the assay with MCF7 [13] was “Dose-dependent effect”.
